# Data: patent publication US9296716B2, “Androgen receptor ligands” (THE PROVOST, FELLOWS, FOUNDATION SCHOLARS, & THE OTHER …, priority 2011, dated 2016)
# “Also recorded” adds a separate entry of the source.
# Tests used:
# Format in all cases: cell-based
# [1] = test system: PSA expression in 22Rv1 cells; experiment: PSA ELISA, secreted PSA in 22Rv1 cells; settings: 22Rv1
# Protocol: (§1) To investigate compounds effect on PSA expression, a common biomarker for prostate cancer, we utilized a human PSA ELISA assay.
# (§2) We repeated the same experiment in 22Rv1 cell line.
# (§3) Secreted levels of prostate specific antigen were evaluated with a commercially available kit (Quantikine Human Kallikrein 3/PSA Immunoassay, R&D systems). The assay was performed following manufacturer's guidelines. In brief, 50 μl of standards and cell culture samples were added to pre-coated wells containing assay diluent RD1W (R&D systems) and incubated for two hours at room temperature. Unbound material was washed several times and 200 μl of Horseradish Peroxidase (HRP) labeled PSA conjugate antibody was added to each well and further incubated for two hours at room temperature. Wells were washed and treated with colored substrate (Tetramethylbenzidine) for an additional 30 minutes, after which 50 μl of stop solution (Sulphuric Acid 2N) was added per well and absorbance (450 nm with correction at 540 nm) was read with a plate reader within 30 minutes (Versamax).
# LNCaP cells = experiment: LNCaP cell proliferation assay (androgen deprived, AlamarBlue); settings: LNCaP, androgen deprived media, no DHT
# Protocol: To determine the optimal DHT concentration and length of treatment required for cell proliferation assays, we tested a range of DHT concentrations in 0.1% DMSO for 5 or 7 days in LNCaP cells cultured in FBS stripped phenol red free media. […] Media and treatments were replaced every second incubation day (FIGS. 12 A and B)
# (§4) For cell viability (end point) assays LNCaP, PC-3 and PWR-1E cells were seeded at 2.5*10^4/ml density in 200 μl volume of a 96-well plate in triplicate and incubated for 24 hours prior testing. Test compounds were included at different concentrations to achieve a final concentration of 0.5% DMSO in each well. Effect of 0.5% DMSO on cell-viability was also evaluated. Cell viability was assessed after 24 hours of treatment using 10% Alamar Blue reagent (Invitrogen) for each well. Cell viability was monitored by the reduction of resazurin, a blue, cell-permeable and non-toxic compound, to resorufin, a red and highly fluorescent product. Viable cells continuously convert resazurin to resorufin, increasing the overall colour and fluorescence of the media surrounding cells. Fluorescence intensity can be quantitatively determined with a fluorescence microplate reader at excitation/emission 544 nm/590 nm (Spectramax Gemini). For hormone dependent cell proliferation assays in androgen deprived LNCaP cells, cells were seeded at 2*10^4 cells/ml in a 24-well plate in triplicate. Cells were plated in phenol red free RPMI Glutamax (Invitrogen) supplemented with 10% charcoal-stripped FBS to deplete endogenous steroids 48 hours prior the assay as described in previous reports. […] Cells were treated with different concentrations of test compounds with or without 0.1 nM DHT to achieve a final concentration of 0.1% DMSO in each well. A control for the vehicle was included to ensure no effect on viability could be detected. Media and treatments were replaced every second day, after washing the cells twice with 1×PBS. Supernatants were collected after five days for secreted PSA levels evaluation and cell proliferation was assessed for the same plate using Alamar Blue in order to exclude non-specific effects due to toxicity issues.
# PC-3 cells = experiment: Cell viability (AlamarBlue), PC-3; settings: 50 μM, 24 hours
# Protocol: Cell viability was assessed after 24 hours of incubation with the test compounds initially at three different concentrations to establish their dose-responsiveness, considering 50 μM as the highest concentration (FIG. 10).
# For cell viability (end point) assays LNCaP, PC-3 and PWR-1E cells were seeded at 2.5*10^4/ml density in 200 μl volume of a 96-well plate in triplicate and incubated for 24 hours prior testing. Test compounds were included at different concentrations to achieve a final concentration of 0.5% DMSO in each well. Effect of 0.5% DMSO on cell-viability was also evaluated. Cell viability was assessed after 24 hours of treatment using 10% Alamar Blue reagent (Invitrogen) for each well. Cell viability was monitored by the reduction of resazurin, a blue, cell-permeable and non-toxic compound, to resorufin, a red and highly fluorescent product. Viable cells continuously convert resazurin to resorufin, increasing the overall colour and fluorescence of the media surrounding cells. Fluorescence intensity can be quantitatively determined with a fluorescence microplate reader at excitation/emission 544 nm/590 nm (Spectramax Gemini). For hormone dependent cell proliferation assays in androgen deprived LNCaP cells, cells were seeded at 2*10^4 cells/ml in a 24-well plate in triplicate. […] A control for the vehicle was included to ensure no effect on viability could be detected. […]
# 22Rv1 cells = experiment: 22Rv1 cell proliferation assay
# Protocol: Thus, inhibition on cell proliferation by the compounds could not be evaluated (FIG. 14)
# as §2
# For cell viability (end point) assays LNCaP, PC-3 and PWR-1E cells were seeded at 2.5*10^4/ml density in 200 μl volume of a 96-well plate in triplicate and incubated for 24 hours prior testing. Test compounds were included at different concentrations to achieve a final concentration of 0.5% DMSO in each well. Effect of 0.5% DMSO on cell-viability was also evaluated. Cell viability was assessed after 24 hours of treatment using 10% Alamar Blue reagent (Invitrogen) for each well. Cell viability was monitored by the reduction of resazurin, a blue, cell-permeable and non-toxic compound, to resorufin, a red and highly fluorescent product. Viable cells continuously convert resazurin to resorufin, increasing the overall colour and fluorescence of the media surrounding cells. Fluorescence intensity can be quantitatively determined with a fluorescence microplate reader at excitation/emission 544 nm/590 nm (Spectramax Gemini). […] A control for the vehicle was included to ensure no effect on viability could be detected. […] Supernatants were collected after five days for secreted PSA levels evaluation and cell proliferation was assessed for the same plate using Alamar Blue in order to exclude non-specific effects due to toxicity issues.
# [2] = test system: PSA expression in LNCaP cells; experiment: PSA ELISA, secreted PSA in LNCaP cells; settings: bell-shaped effect
# Protocol: as §1, §4
# as §3, with “Unbound material was washed several times and 200 μl of Horseradish Peroxidase (HRP) labeled PSA conjugate antibody was added to each well and further incubated for two hours at room temperature.” left out
smiles,measurement,setting,value
"CC(=O)O[C@]1(C(C)=O)CC[C@H]2[C@@H]3C=C(Cl)C4=CC(=O)[C@@H]5C[C@@H]5[C@]4(C)[C@H]3CC[C@@]21C [CPA, Cyproterone Acetate, reference compound]",PSA expression in absence of androgens,[1],remarkable increase
same,cell proliferation in absence of DHT / androgens,LNCaP cells,induces cell proliferation; also recorded: stimulates cell proliferation
same,effect on cell viability,PC-3 cells,minor effect
same,cell proliferation in absence of androgens,22Rv1 cells,couldn't see a remarkable increase
same,maximal stimulatory concentration for PSA secretion,[2],1 µM
